# Source: patent publication US4885299A, “2-(2,3-dihydro-2-oxo-3-benzofuranyl)acetic acids antihypoxic and nootropic effects having” (ADIR Et Cie, priority 1987, dated 1989)
# Structures can show the parent of a compound that is named as a salt. Where two headings read alike, the source gives them in different places.
# Tests used:
# [1] = system: Acute hypoxia in mice; survival of the brain; assay: Acute hypoxia in mice (hypobaric); brain survival time to final respiratory gasp; assay type: in vivo, Male CD1 mice (Charles River)
# Protocol: (§1) The compounds of the present invention were tested in respect of their capacity to prolong the survival of cerebral tissue during acute hypoxia in mice, or to maintain the level of tissue energy-rich compounds in rats subjected to a fall in the oxygen supply [Pharmacology of Cerebral Ischemia, p. 334-339 (1968) Elsevier Science Publishers B.V., J. Krieglstein ed.]. […] Forsch. Drug. Res. (1986), 36 II No. 9, p. 1314-1320].
# The survival of the brain is assessed by measuring the time at which the final respiratory gasp is observed.
# The survival time of a treated batch is compared with that of a control batch receiving only the solvent.
# The percentage increase in the survival time after the animals are treated with the compounds of the invention is shown in Table II.
# [2] = system: brain energy-rich compounds (ATP, ADP, AMP); assay: Acute hypoxia in rats; protection of tissue energy-rich compounds in brain (ATP, energy content); assay type: in vivo, Male Fischer 344 rats (Charles River); settings: for % inhibition of the effects of hypoxia, ATP / % inhibition of the effects of hypoxia, EC (tissue energy content): 3% oxygen for 2 minutes; for antihypoxic effect / protection in words: 300 mg/kg
# Protocol: as §1
# Whereas the control rats breath a gaseous mixture containing 21% of oxygen and 79% of nitrogen, the rats subjected to hypoxia breath a mixture of 3% oxygen and 97% nitrogen for 2 minutes.
# At the end of the hypoxic period, the animals are rapidly sacrificed by total immersion in liquid nitrogen. The frozen brain is removed and the energy-rich compounds (ATP, ADP, AMP) are extracted and assayed by the luciferin luminescence method.
# The tissue energy content (EC) is calculated according to ATKINSON's formula: [formula]
# [3] = Mus musculus, ip, 30 mg/kg I.P., 30 minutes before hypoxia, mice, read-out: Percentage increase in the survival time
# [4] = Mus musculus, ip, 100 mg/kg I.P., 30 minutes before hypoxia, mice, read-out: Percentage increase in the survival time
# [5] = 100 mg/kg I.P., 30 minutes before hypoxia, mice
# [6] = Mus musculus, ip, read-out: Percentage increase in the survival time
# [7] = 100 mg/kg I.P., listed as pyritinol
SMILES,"change in vivo at 30 mg/kg [1, 3] [%]","change in vivo at 100 mg/kg [1, 4] [%]","% inhibition of the effects of hypoxia, ATP ([2]; 100 mg/kg I.P.) [%]","% inhibition of the effects of hypoxia, EC (tissue energy content) ([2]; 100 mg/kg I.P.) [%]","% inhibition of the effects of hypoxia, ATP ([2]; 30 mg/kg I.P.) [%]","% inhibition of the effects of hypoxia, EC (tissue energy content) ([2]; 30 mg/kg I.P.) [%]","Percentage increase in the survival time [1, 5]","% inhibition of the effects of hypoxia, ATP ([2]; 300 mg/kg I.P.) [%]","% inhibition of the effects of hypoxia, EC (tissue energy content) ([2]; 300 mg/kg I.P.) [%]",antihypoxic effect / protection in words [2],also measured
"O=C(CC1(c2ccccc2)C(=O)Oc2ccc(Cl)cc21)N1CCN(Cc2ccc3c(c2)OCO3)CC1 (stereo not shown) [Example 16, 2-(5-Chloro-2,3-dihydro-2-oxo-3-phenyl-3-benzofuranyl)-1-[4-(3,4-methylenedioxybenzyl)piperazinyl]-1-oxoethane]",64,100,77.5,76.3,–,–,–,–,–,–,"Percentage increase in the survival time ([1]; 100 mg/kg I.P., 30 minutes before hypoxia, mice, listed as Ex. 16): +100%"
"O=C(CC1(c2ccccc2)C(=O)Oc2ccc(F)cc21)N1CCN(Cc2ccc3c(c2)OCO3)CC1 (stereo not shown) [Example 20, 2-(5-Fluoro-2,3-dihydro-2-oxo-3-phenyl-3-benzofuranyl)-1-[4-(3,4-methylenedioxybenzyl)piperazinyl]-1-oxoethane hydrochloride]",104,100,70.2,71.5,56.9,61.3,–,–,–,–,"Percentage increase in the survival time ([1]; 100 mg/kg I.P., 30 minutes before hypoxia, mice, listed as Ex. 20, hydrochloride): +100%; change in vivo at 10 mg/kg ([1]; Mus musculus, ip, 10 mg/kg I.P., 30 minutes before hypoxia, mice, read-out: Percentage increase in the survival time): 52%; change in vivo at 300 mg/kg ([1]; Mus musculus, ip, 300 mg/kg I.P., 30 minutes before hypoxia, mice, read-out: Percentage increase in the survival time): 128%"
"CN(C)CCOC(=O)COc1ccc(Cl)cc1 [Meclofenoxate, meclofenoxate, reference compound]",–,–,–,–,–,–,+22%,59.7,69.6,–,"change in vivo at 30 mg/kg [1, 6]: 4%; change in vivo at 100 mg/kg [1, 6]: 22%; change in vivo at 600 mg/kg [1, 6]: 190%"
"NC(=O)CN1CCCC1=O [Piracetam, piracetam, reference compound]",–,11,–,–,–,–,+11%,–,1.6,only very little protection,"change in vivo at 1000 mg/kg ([1]; Mus musculus, ip, 1000 mg/kg I.P., 30 minutes before hypoxia, mice, read-out: Percentage increase in the survival time): 25%"
"Cc1ncc(CSSCc2cnc(C)c(O)c2CO)c(CO)c1O [Pyritinol, pyritinol]",13,27,23.3,35.2,11.1,16.6,+27%,90.4,85.4,distinct antihypoxic effect,"significance of the protection (brain survival time) ([1]; 100 mg/kg, mice): significant; change in vivo at 200 mg/kg ([1]; Mus musculus, ip, 200 mg/kg I.P., 30 minutes before hypoxia, mice, read-out: Percentage increase in the survival time): 77%; antihypoxic effect in words ([2]; 100 mg/kg): only a more modest effect; % inhibition of the effects of hypoxia, ATP [2, 7]: 23%; % inhibition of the effects of hypoxia, EC (tissue energy content) [2, 7]: 35%"
